Source: US20220313719A1, “METHODS OF TREATING DISEASES ASSOCIATED WITH CHANGES IN PLATELET COUNTS USING PROTEIN KINASE A ACTIVATOR AND INHIBITOR” (Soochow university, priority 2017, published 2022)

What was measured:
platelets = experiment: Anti-platelet antibody R300-induced platelet clearance (ITP mouse model); format: in vivo, ICR mice; settings: for platelet counts versus NS group at 30 min: injection 10 min before R300 (0.1 μg/g), PGE2 20 ng/ml, cAMP 12 μg/ml, P<0.05
Experimental: After 10 min, the anti-platelet antibody R300 (0.2 μg/kg) was intraperitoneally injected into the mice, and the whole blood was collected from the orbital vein at different time points. The platelets were counted by a Sysmex XP-100 blood analyzer, 6 mice were used per group, and the results were expressed as mean±standard deviation (FIG. 12C).
12 ICR mice were divided into two groups with 6 mice in each group. The 6 mice in the experimental group were injected with milrinone (1 mg/kg), and the 6 mice in the control group were injected with normal saline (NS). 10 min after the mice were injected with the milrinone (1 mg/kg) (or NS) in the tail vein, the mice were intraperitoneally injected with the R300 antibody (0.1 mg/kg). Blood sampling and counting were then carried out at each time point.
First, the mice were sampled for blood as a reference value. Then the control group and the test group were injected with 0.9% NS and PGE2 (20 ng/ml), respectively. After 10 min, R300 (0.1 μg/g) was injected. Blood sampling and counting were then carried out at 30 min, 2 h, 4 h, 6 h, and 24 h.
First, the mice were sampled for blood as a reference value. Then the control group and the test group were injected with 0.9% NS and cAMP (12 μg/ml), respectively. After 10 min, R300 (0.1 μg/g) was injected. Blood sampling and counting were then carried out at 30 min, 2 h, 4 h, 6 h, and 24 h.
First, the mice were sampled for blood as a reference value. Then the control group and the test group were injected with 0.9% NS and aminophylline (0.24 mmol/L), respectively. After 10 min, R300 (0.1 μg/g) was injected. Then blood sampling and counting were carried out at 30 min, 2 h, 4 h, 6 h, and 24 h (FIG. 20).

washed platelets [1] = experiment: Mitochondrial membrane potential (ΔΨm) detection with JC-1 by flow cytometer; format: cell-based, human
Experimental: When washed platelets were prepared, venous blood from healthy volunteers was anticoagulated with ACD (2.5% sodium citrate, 2.0% glucose, and 1.5% citric acid) at 1:7, platelet-rich plasma (PRP) was obtained by centrifugation at 1300 rpm for 20 min, the PRP was centrifuged at 1500 g for 2 min, and the supernatant was discarded. The precipitated platelets were suspended, centrifuged and washed with CGS buffer (0.123 M sodium chloride, 0.033 M glucose, 0.013 M sodium citrate, pH 6.5). […] The platelets were counted by a counter. […]
Washed platelets (3×10^8/mL) were incubated with different concentrations of H89 (12.5 μM, 25 μM, 37.5 μM and 50 μM) or negative control (DMSO) for 10 min at room temperature, and then platelet ΔΨm was determined using the lipophilic cationic dye JC-1. JC-1 with a final concentration of 2 μg/ml was added to the treated platelets, and the platelets were incubated at 37° C. for 20 min in the dark, and detected by using a flow cytometer. […] The JC-1 monomer (λex 514 nm, λem 529 nm) and the polymer (λex 585 nm, λem 590 nm) were determined by calculating the proportion of flow red fluorescence (JC-1 polymer) or green fluorescence (JC-1 monomer). […]

caspase-3 = experiment: Western blot of caspase-3, gelsolin and caspase-3 activity in platelets; format: cell-based, human; settings: different concentrations of H89, 22° C., 30 min
Experimental: Washed platelets were incubated with different concentrations of H89 (25 μM, 50 μM, and 100 μM) or negative control (DMSO) at room temperature for 10 min. The reaction was stopped by the addition of 2× cell lysis buffer (containing 2 mM PMSF, 2 mM NaF, 2 mM Na3VO4, and protease inhibitor), and the platelets were lysed on ice, and sampled. The samples were tested for expression of the corresponding proteins by Western blotting.
(§1) Different concentrations of H89 (0, 12.5, 25, 37.5, and 50 μM) were applied to washed platelets at 22° C. for 160 min, and mitochondrial transmembrane potential depolarization and PS exposure of platelets were detected by using the flow cytometer. The experiments were repeated four times. The washed platelets were pretreated with different concentrations of H89 at 22° C. for 30 min. At the same time, DMSO and A23187 treated negative control group and positive control group platelets were established. Caspase-3, gelsolin protein expression and caspase-3 activity in platelets were detected by Western blot. The FITC-labeled anti-CD41 antibody was mixed with the pre-treated platelets at a ratio of 1:10, and incubated at room temperature for 10 min in the dark. Analyzing the platelet size scatter plot, the decrease in the CD41 positive cell count represents a decrease in the platelet count. […]

washed platelets [2] = experiment: Platelet shrinkage experiment (FSC of GPIIb/IIIa positive platelets); format: cell-based, human
Experimental: Washed platelets were incubated with different concentrations of H89 (12.5 μM, 25 μM, 37.5 μM and 50 μM) or negative control (DMSO) at room temperature for 10 min. The platelets and the SZ21 antibody were then incubated for 30 min at room temperature. The platelets were centrifuged, resuspended with the FITC-labeled goat-anti-mouse antibody, and incubated for 30 min at room temperature in the dark. The platelets were collected by using a flow cytometer, and platelet scatter plots collected by FSC-FL1 were used to analyze the platelets. The degree of shrinkage of the platelets was evaluated by analyzing the change in FSC and evaluating the degree of FSC reduction in GPIIb/IIIa positive cells. A23187 was used as a positive control. DMSO was used as a negative control.
as §1, with “blot.” for “blot. The FITC-labeled anti-CD41 antibody was mixed with the pre-treated platelets at a ratio of 1:10, and incubated at room temperature for 10 min in the dark. Analyzing the platelet size scatter plot, the decrease in the CD41 positive cell count represents a decrease in the platelet count.”

washed platelets [3] = experiment: Scanning electron microscopy of platelet morphology; format: cell-based, human; settings: 22° C., 160 min
Experimental: The washed platelets were fixed with 2.5% […] at 4° C. overnight. The washed platelets were sent to a scanning electron microscope sample room for sample preparation. Morphological analysis of the platelets was carried out by the scanning electron microscope (Japan Hitachi, 5-4700). Five different fields of view were selected for observation and photographing.
as §1

BAD position 155 = experiment: Western blot / co-immunoprecipitation of BAD Ser155 phosphorylation and Bel-xL in platelets; format: cell-based, human; settings: 37.5 uM H89 or 10 uM forskin, 160 min
Experimental: Next, we further explored the mechanism by which PKA inhibits induction of platelet apoptosis. At room temperature, 3×10^8/mL washed platelets were incubated with different concentration gradients of H89 or the DMSO internal reference for 160 min. The platelets were lysed on ice for 30 min with an equal volume of lysis buffer. The product was electrophoretically separated by SDS-PAGE to obtain protein fragments of different sizes. The protein fragments were blocked in skim milk powder for one hour and then the primary antibody was added for incubation. […] The washed platelets were pretreated with 37.5 uM H89, 10 uM forskin and the DMSO internal reference respectively for 160 min at room temperature. Cytoplasmic proteins (FIG. 8B) and mitochondrial proteins (FIG. 8D) were extracted from the platelets, respectively. The interest proteins were detected by western blot. The amount of the interest proteins was analyzed by Image J software. Four experiments were counted to show the results in mean±standard deviation. After lysis, the pre-treated platelets were centrifuged at 17,000 g for 10 min at 4° C. The obtained supernatant was incubated with the corresponding antibody for precipitation overnight, and after incubation with protein A/G+ agarose beads at 4° C. for 2 hours, the beads were eluted for protein hybridization (FIG. 8C).

stored platelets = experiment: Clearance of stored platelets in the body; settings: in vivo
Excerpt: In addition to apoptosis, there are other changes in storage damage that result in the clearance of stored platelets in the body. Therefore, we investigated whether PKA activation protects platelet from apoptosis while preventing the stored platelets from being cleared.

washed platelets [4] = experiment: Fasudil platelet apoptosis (ΔΨm and PS exposure) with thrombin; format: cell-based, human; settings: 10 min room temperature, then thrombin 0.1 U/ml 30 min 37° C.
Experimental: Washed platelets (3×10^8/mL) were incubated with different Fasudil or negative control (normal saline) for 10 min at room temperature. Thereafter, except the negative control, thrombin (0.1 U/ml) was added to each group, and incubation was carried out for 30 min at 37° C. Platelet ΔΨm was measured using the lipophilic cationic dye JC-1. JC-1 with a final concentration of 2 μg/ml was added to the treated platelets, and the platelets were incubated at 37° C. for 5 min in the dark, and detected by using the flow cytometer. […] The JC-1 monomer (λex 514 nm, λem 529 nm) and the polymer (λex 585 nm, λem 590 nm) were determined by calculating the proportion of flow red fluorescence (JC-1 polymer) or green fluorescence (JC-1 monomer) (FIG. 22).
Washed platelets (3×10^8/mL) were incubated with different Fasudil or negative control (normal saline) for 10 min at room temperature. Thereafter, except the negative control, thrombin (0.1 U/ml) was added to each group, and incubation was carried out for 30 min at 37° C. After that, Annexin V buffer, treated platelets, and Annexin V-FITC in a ratio of 50:10:1 were incubated for 15 min at room temperature in the dark, and detected by using the flow cytometer (FIG. 22).

In the case of Cc1[nH]c(=O)c(C#N)cc1-c1ccncc1 [milrinone], the “platelet counts in peripheral blood of mice” value (platelets; milrinone 1 mg/kg tail vein, R300 0.1 mg/kg i.p. after 10 min, vs NS) is reported as “significantly increased”.
In the case of O=S(=O)(NCCNCC=Cc1ccc(Br)cc1)c1cccc2cnccc12 [H89, N-[2-((p-bromocinnamyl)amino)ethyl]-5-isoquinoline sulfonamide], the “ΔΨm depolarization in platelets, time dependence” value (washed platelets [1]) is reported as “in a time-dependent manner”, the “mitochondrial membrane potential (ΔΨm) depolarization in platelets, dose dependence” value (washed platelets [1]; H89 0, 12.5, 25, 37.5, 50 μM, 22° C., 160 min) is reported as “dose-dependently induced” and the “activation of caspase-3” value (caspase-3) is reported as “dose-dependently induced”. The “digestion of caspase-3 substrate gelsolin” value (caspase-3) was “dose-dependently induced”, the “forward scatter (FSC) of GPIIb/IIIa-positive platelets (shrinkage)” value (washed platelets [2]) was “decrease” and the “typical apoptotic morphological changes (membrane vesicles, pseudopods, shrinkage, degranulation)” value (washed platelets [3]) was “dose-dependently induce”. For the same compound, the “Bel-xL protein on the mitochondrial membrane” value (BAD position 155) was “decrease”, the “co-immunoprecipitation of Bel-xL and BAD” value (BAD position 155) was “significantly reduced” and the “phosphorylation of serine at the BAD position 155” value (BAD position 155; room temperature) was “decreased”. The “clearance of stored platelets by the body” value (stored platelets) was “speeds up the clearance”.
In the case of Cn1c(=O)c2[nH]cnc2n(C)c1=O [Aminophylline, aminophylline], the “platelet clearance in vivo” value (platelets; aminophylline 0.24 mmol/L, R300 0.1 μg/g after 10 min) is reported as “can Inhibit”.
With O=S(=O)(c1cccc2cnccc12)N1CCCNCC1 [Fasudil] the platelet apoptosis (washed platelets [4]) was “can Promote”.
With Nc1ncnc2c1ncn2[C@@H]1O[C@@H]2COP(=O)(O)O[C@H]2[C@H]1O [cAMP, cyclic adenosine monophosphate] the “platelet counts versus NS group at 30 min” value (platelets) was “has statistic difference”.
CCCCC[C@H](O)/C=C/[C@H]1[C@H](O)CC(=O)[C@@H]1C/C=C\CCCC(=O)O [PGE2, prostaglandin E2] was tested, and the “platelet counts versus NS group at 30 min” value (platelets) was “has statistic difference”.
